The values that follow are results of earlier work, collected in US6733485B1, “Microstimulator-based electrochemotherapy methods and systems” (Advanced Bionics Corporation, priority 2001, dated 2004).

The test system of data set [1] is rat and human glioma cells.
Data set [2] deals with tumors in mice.
Data set [3] concerns malignant melanoma skin metastases.
Data set [4] relates to metastatic lesion of oral fibrosarcoma.
Data set [5] relates to multicellular prostate tumor spheroids. The following applies: DC electrical field 500 V/m for 90 seconds.
Data set [6] concerns human T98G glioma cells.
For data set [7], the system named is subcutaneous metastasis of hypernephroma. The following applies: three sessions over four weeks, electric pulses 10 minutes after intravenous injection.
For data set [8] the following is noted: in vitro, administered along with electrical stimulation.
Data set [9] deals with subcutaneously established colorectal tumor.
For data set [10], the system named is cutaneous and subcutaneous tumors.
Data set [11] relates to permeation nodules of head and neck squamous cell carcinomas.
For data set [12], the system named is HNSCC permeation nodules, salivary cancer, and breast cancer. The following applies: electrochemotherapy.

Counter-ions that a name gives are not always drawn. Like-named read-outs stand apart in the source and are kept apart here.

With `N.N.O=C([O-])C1(C(=O)[O-])CCC1.[Pt+2]` [carboplatin], the “enhancement of cytotoxicity by electric stimulation” value (shortened to “enhancement of cytotoxicity”) in [1] (carboplatin: high dose) is listed as “only slightly enhanced”.
Regarding `N.N.[Cl][Pt][Cl]` [cisplatin], the “platinum bound to DNA, electrochemotherapy versus cisplatin treated tumors” value in data set [2] (all time points tested) is recorded as “Approximately two”. Further, the tumor growth delay entry in [2] (cisplatin treatment without electric pulses, intratumoral 1-8 mg/kg) is on record as “up to 20 days”. For the same compound, the “tumor cures (local tumor control plateau)” value in data set [2] (electrochemotherapy, 4 mg/kg, eight pulses 100 μsec, 1 Hz, 1040 V) is 67%. The “median time to progression” value was “four” in data set [3] (chemotherapy-treated nodules (cisplatin alone)) and 21 weeks in data set [3] (electrochemotherapy-treated nodules). Besides, the tumor nodules responded in data set [3] (cisplatin alone, 18 nodules) is 22%; in data set [3] (electrochemotherapy, four weeks after treatment, 27 nodules), 48%.
On to `O=P1(N(CCCl)CCCl)NCCCO1` (centres unmarked) [cyclophosphamide], for which the “effect on tumor growth” value in data set [4] (cyclophosphamide injection alone) was “no significant suppressive effect”. The tumor size entry in data set [4] (intraperitoneal injection followed by local electric pulses, several days after treatment) is “markedly reduced in size”.
Regarding `COc1cccc2c1C(=O)c1c(O)c3c(c(O)c1C2=O)C[C@@](O)(C(=O)CO)C[C@@H]3O[C@H]1C[C@H](N)[C@H](O)[C@H](C)O1` [doxorubicin], the uptake of doxorubicin result in data set [5] is given as “did increase their uptake of doxorubicin”.
`COc1cc([C@@H]2c3cc4c(cc3[C@@H](O[C@@H]3O[C@@H]5CO[C@@H](C)O[C@H]5[C@H](O)[C@H]3O)[C@H]3COC(=O)[C@H]23)OCO4)cc(OC)c1O` [etoposide]: in [1], the “enhancement of cytotoxicity” value is “no electrochemotherapy enhancement”.
Turning to `Cc1ncc(CNC(=O)N(CCCl)N=O)c(N)n1` [nimustine hydrochloride], in data set [1] (carboplatin: high dose), the “enhancement of cytotoxicity” value is recorded as “no electrochemotherapy enhancement”.
`CC[C@]1(O)C[C@H]2CN(CCc3c([nH]c4ccccc34)[C@@](C(=O)OC)(c3cc4c(cc3OC)N(C=O)[C@H]3[C@@](O)(C(=O)OC)[C@H](OC(C)=O)[C@]5(CC)C=CCN6CC[C@]43[C@@H]65)C2)C1` [vincristine]: in data set [1], the “enhancement of cytotoxicity” value is “no electrochemotherapy enhancement”.
For bleomycin, in data set [6] (8 cycles, 1 Hz square wave, 100 μsecond, 1000 V/cm), the “increase of toxicity of bleomycin by electric stimulation” value is “more than 1000 fold”. Also, the “increase of toxicity at reduced bleomycin concentration” value in data set [6] (bleomycin concentration 100 pg/ml) is listed as “This increase disappeared”. Also, the “time for which tumor volume was stabilized” value in data set [7] is 12 months. The “factor by which the dose of bleomycin can be reduced” value in [8] is on record as 100-5000. Also, the tumor development result in data set [9] (intratumoral, intravenous or intraperitoneal, 1/50 to 1/2 of LD50, 500 to 2,000 V/cm) is “Significant suppression of tumor development and even some cures”. In data set [9] (lowest dose of bleomycin and lowest electric field intensity, repeated), the “cures on repeated electrochemotherapy” value is “complete cures of colorectal cancer were achieved in all animals”. In addition, in data set [10] (bleomycin only, no electric pulses), the “complete responses in nodules” value was “No complete responses”. In addition, the “patients responding to the treatment” value in data set [10] (bleomycin plus 6-8 pulses, 1300 V/cm, 34 patients) was “All patients responded”. In addition, in data set [10] (bleomycin plus electric pulses), the “nodules with complete responses” value is given as 91% and the side effects result was “no significant side effects were noted”. For the same compound, the “metastatic nodules or primary tumors with responses” value in data set [10] (bleomycin plus electric pulses, within 12 weeks) is 142 of 143. Further, the side effects result in [11] (10 mg/m^2 intravenous bolus plus electric pulses, eight patients) was “Neither local nor general side effects were observed”. Also, the “nodules with clinical complete response” value in data set [11] (10 mg/m^2 intravenous bolus, then 4 or 8 cycles of 100 μsec pulses at 1300 V/cm, 40 nodules, within a few days) is given as 57%. Also, the “effectiveness after intraarterial or intranodular injection” value in data set [12] was “effective”. Further, the antitumor effects entry in data set [12] (seven patients) was “Clear antitumor effects were obtained”.
